The values below come from patent US6344184B1, “Oral composition for inhibiting oral malodor” (priority 1999, dated 2002).

The subject of this experiment is VSCs (hydrogen sulfide, methyl mercaptan) formed by bacteria in freshly collected human saliva. Put plainly: In vitro VSC inhibition in incubated human saliva, gas chromatography of gas phase. Type of experiment: cell-based. The procedure: In vitro experiments were performed to test the VSC-inhibiting potential of different combinations of zinc acetate and cationic antibacterial agents.
To a 1 ml sample of freshly collected human saliva in a test tube was added 10 microliter of the solutions (mouthrinses) described below. The test tubes were closed with a stopper and incubated overnight at 37° C. A control tube which contained only saliva served as a control. It is well known that large amounts of VSCs are formed in a test tube during the latter conditions, the bacteria breaking down the salivary proteins and forming VSCs from cysteine and methionine. The VSCs in the gas phase above the incubated saliva, were measured by gas chromatography in a Shimadzu 14B instrument, and hydrogen sulfide, methyl mercaptan and di-methyl sulfide were used as standard.
The solutions to be tested were: 0.3% zinc acetate, 0.025% chlorhexidine, 0.025% cetylpyridinium chloride and 0.025% benzalkonium chlorides. Subsequently the zinc acetate was combined with each of the individual antibacterial agents. All the experiments described In this paragraph were performed on the same day under Identical conditions. The concentrations chosen were based on experience from pilot experiments with different concentrations of the zinc and antibacterial agents.
An examination was conducted to investigate whether the effect of the combinations of zinc acetate and the individual antibacterial agents represented a synergistic effect. This was performed according to the method of Behrenbaum (J.lnf. Dis. 137:122-130, 1978). The fractional inhibitory concentrations (the FIC index) was calculated based on the amounts (AUC) of hydrogen sulfide and methyl mercaptan formed under different conditions. […] The FIC index was calculated from the following formula: (A+B)/A+(A+B)/B, where A+B represents the combinations of zinc and antibacterial agent, whereas A and B alone represent the individual agents.
If the FIC Index is below 1 (<1) a synergistic effect is established. If the index is like 1 (=1) an additional effect between A and B is seen, whereas an index above 1 (>1) indicates an antagonistic effect.

The mark [1] stands for this setting: 10 microliter solution added to 1 ml human saliva, incubated overnight at 37° C, low AUC = strong inhibitor, control >27 mill.
The mark [2] stands for this setting: 10 microliter solution added to 1 ml human saliva, incubated overnight at 37° C, low AUC = strong inhibitor, control >41 mill.

Where two headings read alike, the source gives them in different places.

As for `CC(=O)O.CC(=O)O.NC(=N\CCCCCC/N=C(N)/N=C(\N)Nc1ccc(Cl)cc1)/N=C(\N)Nc1ccc(Cl)cc1` [CHX 0.025%, chlorhexidine acetate], the “HS (hydrogen sulfide) AUC value (amount of VSC)” value (from here on “HS (hydrogen sulfide) AUC value”) under setting [1] is on record as 443 000 AUC. Further, the “MM (methyl mercaptan) AUC value (amount of VSC)” value (shortened to “MM (methyl mercaptan) AUC value”) under setting [2] is 355 000 AUC. Moreover, for the setting “incubated human saliva, versus control”, the “Effect on HS and MM in saliva, in words” value is “clear effect on both HS and MM in the same order of magnitude as zinc acetate”.

As for benzalkonium chloride [Benzalk 0.025%], the “HS (hydrogen sulfide) AUC value” value under setting [1] was determined as 1.4 mill. The “MM (methyl mercaptan) AUC value” value under setting [2] came out at 1.7 mill.

As to `CC(=O)[O-].CC(=O)[O-].[Zn+2]` [Zinc Ac. 0.3%, zinc acetate], the “Effect on HS and MM in saliva, in words” value is on record as “reduced the amount of HS much more than the amount of MM”. Also, the “HS (hydrogen sulfide) AUC value” value under setting [1] is reported as 150 000 AUC. For the same compound, the “MM (methyl mercaptan) AUC value” value under setting [2] is 4 mill.

For the compound `CCCCCCCCCCCCCCCC[n+]1ccccc1` [CPC 0.025%, cethylpyridinium chloride], the “HS (hydrogen sulfide) AUC value” value was found to be 5.2 mill and the “MM (methyl mercaptan) AUC value” value was 6.89 mill.
